# Results taken from patent US7514582B2, “2′-substituted 1,1′-biphenyl-2-carboxamides, processes for their preparation, their use as medicaments, and pharmaceutical preparations comprising them” (Sanofi-Aventis Deutschland GmbH, priority 1999, dated 2009).
# Target: T1, Kv1.5 channels from humans (Homo sapiens, UniProt P22460)
# T1 construct: expressed in transfected cells; host or cells: Xenopus laevis oocytes injected with in vitro synthesized RNA
# Assay: Kv1.5 currents in Xenopus oocytes, two-microelectrode voltage clamp
# Format: cell-based
# Details: not given
# Protocol: Kv1.5 channels from humans were expressed in Xenopus oocytes. For this, oocytes from Xenopus laevis were first isolated and defolliculated. RNA encoding Kv1.5 synthesized in vitro was then injected into these oocytes. After Kv1.5 protein expression for 1-7days, Kv1.5 currents were measured on the oocytes using the two-microelectrode voltage clamp technique. The Kv1.5 channels were in this case as a rule activated using voltage jumps to 0 mV and 40 mV lasting 500 ms. The bath was rinsed with a solution of the following composition: NaCl 96 mM, KCl 2 mM, CaCl2 1.8 mM, MgCl2 1 mM, HEPES 5 mM (titrated with NaOH to pH 7.4). These experiments were carried out at room temperature. The following were employed for data acquisition and analysis: Genedamp amplifier (Axon Instruments, Foster City, USA) and MacLab D/A converter and software (AD Instruments, Castle Hill, Australia). The substances according to the invention were tested by adding them in different concentrations to the bath solution. The effects of the substances were calculated as the percentage inhibition of the Kv1.5 control current which was obtained when no substance was added to the solution. The data were then extrapolated using the Hill equation in order to determine the inhibitory concentration IC50 for the respective substances.
# T1 sequence (P22460 whole entry): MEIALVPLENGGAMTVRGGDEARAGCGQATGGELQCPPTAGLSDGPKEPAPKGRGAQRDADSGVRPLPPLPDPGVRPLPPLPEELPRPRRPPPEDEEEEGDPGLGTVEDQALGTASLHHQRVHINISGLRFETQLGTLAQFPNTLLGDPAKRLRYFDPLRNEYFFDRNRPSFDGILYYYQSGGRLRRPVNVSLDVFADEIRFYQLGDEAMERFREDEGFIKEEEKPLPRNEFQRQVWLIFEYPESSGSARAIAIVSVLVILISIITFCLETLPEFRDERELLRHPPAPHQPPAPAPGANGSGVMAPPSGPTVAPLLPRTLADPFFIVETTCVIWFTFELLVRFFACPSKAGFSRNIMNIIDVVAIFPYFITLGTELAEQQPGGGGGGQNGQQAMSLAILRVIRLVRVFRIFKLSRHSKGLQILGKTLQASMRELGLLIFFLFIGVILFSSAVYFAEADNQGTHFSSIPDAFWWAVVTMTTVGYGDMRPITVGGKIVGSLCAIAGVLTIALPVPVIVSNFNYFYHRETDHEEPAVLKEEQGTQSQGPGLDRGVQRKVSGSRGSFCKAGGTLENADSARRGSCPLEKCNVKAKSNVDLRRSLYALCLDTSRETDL
row,SMILES,IC50
1,O=C(NCc1ccccc1-c1ccccc1C(=O)NCCc1ccccn1)Nc1cccc(C(F)(F)F)c1 [11 o],4400 nM
2,COc1ccc(CC(=O)NCc2ccccc2-c2ccccc2C(=O)NC2CCCC2)cc1 [18 z],1200 nM
3,CC(C)C[C@H](NC(=O)c1ccccc1-c1ccccc1CNC(=O)OCc1ccccc1)C(=O)NCC(F)(F)F [13 d],500 nM
4,CC(C)C(NC(=O)c1ccccc1-c1ccccc1CNC(=O)OCc1ccccc1)C(N)=O (stereo not shown) [8 p],1400 nM
5,C[C@@H](OC(=O)NCc1ccccc1-c1ccccc1C(=O)NCCc1ccccn1)c1ccc(C(F)(F)F)cc1 [1 h],4300 nM
6,O=C(NCc1ccccc1-c1ccccc1C(=O)NCCc1cccc[n+]1[O-])OCc1ccccc1 [7 a],~6000 nM
7,C[C@H](CC(=O)NCc1ccccc1-c1ccccc1C(=O)NCc1ccncc1)c1ccccc1 [18 f],1300 nM
8,O=C(NCc1ccccc1-c1ccccc1C(=O)NCCc1ccccc1)OCc1ccccc1 [1 b],3300 nM
9,CC(C)(C)COC(=O)NCc1ccccc1-c1ccccc1C(=O)NCCc1ccccc1 [2 i],3300 nM
10,O=C(NCc1ccccc1-c1ccccc1C(=O)NCCc1cccnc1)OCc1ccccc1 [8 aa],800 nM
11,CC(C)C[C@H](NC(=O)c1ccccc1-c1ccccc1CNC(=O)OCc1ccccc1)C(=O)Nc1ccccc1 [13 b],~3000 nM
12,CC(C)CCC(=O)NCc1ccccc1-c1ccccc1C(=O)NCc1ccc(F)cc1F [18 e],1700 nM
13,CC(C)(C)OC(=O)NCc1ccccc1-c1ccccc1C(=O)NCc1ccccn1 [8 d],6400 nM
14,CC(CC(=O)NCc1ccccc1-c1ccccc1C(=O)NCCc1ccccn1)c1ccccc1 (stereo not shown) [4 l],800 nM
15,CC(C)(C)OC(=O)NCc1ccccc1-c1ccccc1C(=O)NCCc1ccccn1 [8 o],8400 nM
16,CC(C)NC(=O)C(Cc1ccccn1)NC(=O)c1ccccc1-c1ccccc1CNC(=O)OCc1ccccc1 (stereo not shown) [13 i],1200 nM
17,O=C(NCc1ccccc1-c1ccccc1C(=O)NC1CCCCC1)OCc1ccccc1 [6 b],1800 nM
18,CCN(Cc1ccncc1)C(=O)c1ccccc1-c1ccccc1CNC(=O)OCc1ccccc1 [8 q],7300 nM
19,CC(OC(=O)NCc1ccccc1-c1ccccc1C(=O)NCCc1ccccn1)c1ccccc1C(F)(F)F (stereo not shown) [1 l],1400 nM
20,O=C(CCc1ccc(O)cc1)NCc1ccccc1-c1ccccc1C(=O)NCc1ccc(F)cc1F [14 d],2000 nM
21,CC(C)CCNC(=O)c1ccccc1-c1ccccc1[C@@H](C)NC(=O)OCc1ccccc1 [17 c],2100 nM
22,CN(C)c1ccc(CNC(=O)c2ccccc2-c2ccccc2CNC(=O)OCc2ccccc2)cc1 [18 ai],6600 nM
23,CC(C)CCNC(=O)c1ccccc1-c1ccccc1CNC(=O)OCC1CC1 [18 o],3600 nM
24,O=C(NCc1ccccc1-c1ccccc1C(=O)Nc1ccccc1)OCc1ccccc1 [6 c],2500 nM
25,Cc1cccc(CNC(=O)c2ccccc2-c2ccccc2CNC(=O)C[C@@H](C)c2ccc([N+](=O)[O-])cc2)n1 [18 j],700 nM

row,SMILES,IC50
1,O=C(NCc1ccccc1-c1ccccc1C(=O)NCc1ccccn1)OCc1ccccc1 [1 u],800 nM
2,O=C(NCc1ccccc1-c1ccccc1C(=O)NCc1ccc(F)cc1F)OCCCC(F)(F)F [1 t],1300 nM
3,O=C(NCc1ccccc1-c1ccccc1C(=O)NCCCC(F)(F)F)OCc1ccccc1 [8 s],1000 nM
4,CC(OC(=O)NCc1ccccc1-c1ccccc1C(=O)NCCc1ccccn1)c1c(F)cccc1F (stereo not shown) [1 n],1400 nM
5,COc1ccc(S(=O)(=O)NCc2ccccc2-c2ccccc2C(=O)N[C@@H](CC(C)C)C(=O)NCC(F)(F)F)cc1 [13 h],1400 nM
6,O=C(NCc1ccccc1)c1ccccc1-c1ccccc1CNS(=O)(=O)c1cccc(F)c1 [3 k],2400 nM
7,O=C(CCc1ccc(F)cc1)NCc1ccccc1-c1ccccc1C(=O)NCc1ccc(F)cc1F [14 b],2700 nM
8,O=C(NCc1ccccc1-c1ccccc1C(=O)NCc1ccccn1)Nc1ccc(F)cc1F [11 n],5900 nM
9,O=C(NCc1ccccc1-c1ccccc1C(=O)NCCc1ccncc1)OCc1ccccc1 [8 ab],1200 nM
10,CCCCN(CCCC)C(=O)c1ccccc1-c1ccccc1CNC(=O)OCc1ccccc1 [6 e],3600 nM
11,O=C(NCc1ccccc1-c1ccccc1C(=O)NCC(F)(F)F)OCc1ccccc1 [6 h],3000 nM
12,O=C(NCCc1ccccn1)c1ccccc1-c1ccccc1CNS(=O)(=O)c1ccccc1 [3 p],1900 nM
13,C[C@H](NC(=O)NCc1ccccc1-c1ccccc1C(=O)NCCc1ccccn1)c1ccccc1 [5 d],1900 nM
14,O=C(NCc1ccccc1-c1ccccc1C(=O)NCCc1ccccn1)OCc1ccc(C(F)(F)F)cc1 [1 d],1000 nM
15,C[C@@H](OC(=O)NCc1ccccc1-c1ccccc1C(=O)NCc1ccc(F)cc1F)c1ccccc1 [1 o],4400 nM
16,O=C(Cc1ccc(O)cc1)NCc1ccccc1-c1ccccc1C(=O)NCc1ccc(F)cc1F [18 w],5400 nM
17,COC(=O)C(Cc1ccccn1)NC(=O)c1ccccc1-c1ccccc1CNC(=O)OC(C)(C)C (stereo not shown) [8 n],3700 nM
18,CCOc1ccc(CCC(=O)NCc2ccccc2-c2ccccc2C(=O)NCCc2ccccn2)cc1 [4 k],2200 nM
19,O=C(NCc1ccccc1-c1ccccc1C(=O)NCc1nc2ccccc2[nH]1)OCc1ccccc1 [18 ah],2100 nM
20,O=C(NCc1ccccc1-c1ccccc1C(=O)NCc1ccc(F)cc1F)Oc1ccccc1 [2 k],3800 nM
21,CC(C)NC(=O)CNC(=O)c1ccccc1-c1ccccc1CNC(=O)OCc1ccccc1 [8 y],2800 nM
22,Cc1cccc(S(=O)(=O)NCc2ccccc2-c2ccccc2C(=O)N[C@@H](Cc2ccccc2)C(N)=O)c1 [12 f],11300 nM
23,COC(=O)C(CC(C)C)NC(=O)c1ccccc1-c1ccccc1CNC(=O)OCc1ccccc1 (stereo not shown) [8 r],1000 nM
24,O=C(Cc1ccc(F)cc1)NCc1ccccc1-c1ccccc1C(=O)Nc1ccc(F)cc1 [18 k],3000 nM
25,Cc1ccccc1CCC(=O)NCc1ccccc1-c1ccccc1C(=O)NCc1ccc(F)cc1F [14 a],3600 nM

row,SMILES,IC50
1,CC(OC(=O)NCc1ccccc1-c1ccccc1C(=O)NCCc1ccccn1)c1cccc(C(F)(F)F)c1 (stereo not shown) [1 m],700 nM
2,COc1ccc(CC(=O)NCc2cccc(C)c2-c2c(C)cccc2C(=O)NCCC(C)C)cc1 [18 x],4600 nM
3,CCC[C@H](OC(=O)NCc1ccccc1-c1ccccc1C(=O)NCCc1ccccn1)c1ccccc1 [1 r],800 nM
4,O=C(NCc1ccccc1-c1ccccc1C(=O)NCCc1ccccn1)OCCCC(F)(F)F [1 i],1700 nM
5,CC(C)CCNC(=O)[C@H](CC(C)C)NC(=O)c1ccccc1-c1ccccc1CNC(=O)OCc1ccccc1 [13 e],2800 nM
6,O=C(Cc1ccc(F)cc1)NCc1ccccc1-c1ccccc1C(=O)NCc1ccc(F)cc1F [18 u],1100 nM
7,CCC(C)CC(=O)NCc1ccccc1-c1ccccc1C(=O)NCc1ccccn1 (stereo not shown) [18 g],3900 nM
8,O=C(NCc1ccccc1-c1ccccc1C(=O)NCCc1ccccn1)OCc1ccc(F)cc1 [1 e],500 nM
9,COc1ccc(-c2ccccc2CNC(=O)OC(C)(C)C)c(C(=O)NCCC(C)C)c1 [15 b],3100 nM
10,O=C(NCc1ccccc1-c1ccccc1C(=O)NCc1cccnc1)OCCc1ccccc1 [18 q],3200 nM
11,CC(C)CCNC(=O)c1ccccc1-c1ccccc1[C@H](C)NC(=O)O[C@@H](C)c1ccccc1 [17 e],1800 nM
12,COCCNC(=O)c1ccccc1-c1ccccc1CNC(=O)Nc1ccc(Cl)cc1 [11 g],7800 nM
13,C[C@@H](NC(=O)NCc1ccccc1-c1ccccc1C(=O)NCCc1ccccn1)c1ccccc1 [5 e],7200 nM
14,COC(=O)C(Cc1ccccn1)NC(=O)c1ccccc1-c1ccccc1CNC(=O)OCc1ccccc1 (stereo not shown) [8 z],1600 nM
15,O=C(NCc1ccccc1-c1ccccc1C(=O)NCCOc1ccccc1)Nc1ccc(F)cc1F [11 p],7300 nM
16,C[C@H](CC(=O)NCc1ccccc1-c1ccccc1C(=O)NCCc1cccnc1)c1ccccc1 [18 i],400 nM
17,CC(C)(C)OC(=O)NCc1ccccc1-c1ccccc1C(=O)Nc1ccc(F)cc1 [8 k],3100 nM
18,CC(C)C[C@@H](NC(=O)c1ccccc1-c1ccccc1CNC(=O)OCc1ccccc1)C(N)=O [8 ac],1100 nM
19,O=C(NCCc1ccccn1)c1ccccc1-c1ccccc1CNC(=S)NCc1ccccc1 [9 f],2200 nM
20,O=C(NCc1ccccc1-c1ccccc1C(=O)NCCc1ccccn1)Nc1ccc(F)cc1F [11 b],7300 nM
21,CC(OC(=O)NCc1ccccc1-c1ccccc1C(=O)NCCc1ccccn1)c1ccc(C(F)(F)F)cc1 (racemic) [1 f],400 nM
22,COc1ccc(NC(=O)c2ccccc2-c2ccccc2CNC(=O)CCc2ccccc2)cc1 [4 h],1800 nM
23,O=C(NCCc1ccccn1)c1ccccc1-c1ccccc1CNC(=S)Nc1ccccc1 [9 c],2000 nM
24,CC(C)CCNC(=O)c1ccccc1-c1ccccc1CNC(=O)C[C@@H](C)c1ccccc1 [18 d],400 nM

# Same assay, conditions: human Kv1.5 expressed in Xenopus laevis oocytes; voltage jumps to 0 mV and 40 mV, 500 ms; room temperature; inhibition of Kv1.5 control current, Hill equation
row,SMILES,IC50
1,O=C(NCc1ccccc1-c1ccccc1C(=O)NCCc1ccccn1)Nc1ccc(Cl)cc1 [11 l],2700 nM
2,COc1ccc(NC(=O)NCc2ccccc2-c2ccccc2C(=O)NCCc2ccccn2)cc1 [11 a],2300 nM
3,O=C(NCc1ccccn1)c1ccccc1-c1ccccc1CNC(=S)NCCc1ccccc1 [9 g],2200 nM
4,O=C(NCc1ccccc1-c1ccccc1C(=O)NCc1ccccn1)Nc1ccc(C(F)(F)F)cc1 [11 d],3300 nM
5,COc1cc(CNC(=O)c2ccccc2-c2ccccc2CNC(=O)Nc2ccc(F)cc2F)cc(OC)c1OC [11 h],5800 nM
